Test system: HT-29 cells (human colon carcinoma cell line)
Assay: MTT tetrazolium dye proliferation assay on HT-29 cells
Format: cell-based
Conditions: MTT assay after 5 days of compound exposure, 30 uM to 1.5 nM, read-out: IC50 HT29
Method: MTT (tetrazolium dye proliferation assay) is widely used for the quantitative determination of cytotoxic effects or in vitro chemosensitivity of tumor cells. The assay is based on the cleavage of the yellow tetrazolium salt MTT to purple formazan crystals by metabolic active cells. For details, see Rubinstein, L. V., et al., J. Natl. Cancer Inst. 82 (1990) 1113-1118.
The following procedure was performed: HT-29 cells (human colon carcinoma cell line) were cultivated in RPMI 1640, 2.5% FCS, 2 mM Glutamine, 100 u/ml Penicillin, 100 ug/ml Streptomycin. For the assay the cells were seeded in 384 well plates, 900 cells per well, in the same medium The next day compounds (dissolved 10 mM in DMSO) were added in various concentrations ranging from 30 uM to 1.5 nM. After 5 days the MTT assay was done mainly according to the instructions of the manufacturer (Cell proliferation kit I, MTT, form Roche Molecular Biochemicals). In brief: MTT labeling reagent was added to a final concentration of 0.5 mg/ml, added and incubated for 4 hrs at 37 C., 5% CO2. During this incubation time purple formazan crystals are formed. After addition of the solubilization solution (20% SDS in 0.02 M HCl) the plates were incubated overnight at 37 C, 5% CO2. After careful mixing plates were measured in Victor 2 (scanning multiwell spectrophotometer, Wallac) at 550 nm.
A decrease in number of living cells results in a decrease in the total metabolic activity in the sample. The decrease directly correlates to the amount of purple colour resulting from the solubilization of the purple formazan crystals. Determination of IC50 was done using XL-fit.

Structure (SMILES) | IC50
O=C(NO)c1ccc(C(=O)NCc2ccc(C(F)(F)F)cc2)s1 [Example 2, Thiophene-2,5-dicarboxylic acid 2-hydroxyamide 5-(4-trifluoromethyl-benzylamide)] | 110 nM
O=C(NO)c1ccc(C(=O)NCc2cccc(Cl)c2)s1 [Example 4, Thiophene-2,5-dicarboxylic acid 2-(3-chloro-benzylamide) 5-hydroxyamide] | 140 nM
O=C(NO)c1ccc(C(=O)NCCC(c2ccccc2)c2ccccc2)s1 [Example 15, No. 90, thiophene-2,5-dicarboxylic acid 2-[(3,3-diphenyl-propyl)-amide] 5-hydroxyamide] | 140 nM
CC(C)(C)c1ccc(CNC(=O)c2ccc(C(=O)NO)s2)cc1 [Example 15, No. 98, Thiophene-2,5-dicarboxylic acid 2-(4-tert-butyl-benzylamide) 5-hydroxyamide] | 70 nM
O=C(NO)c1ccc(C(=O)NCc2ccc(Cl)c(Cl)c2)s1 [Example 15, No. 139, Thiophene-2,5-dicarboxylic acid 2-(3,4-dichloro-benzylamide) 5-hydroxyamide] | 170 nM

Results, then the molecule that gave them:

IC50 | Structure (SMILES)
50 nM | Cc1cc(C)cc(CNC(=O)c2ccc(C(=O)NO)s2)c1 [Example 5, Thiophene-2,5-dicarboxylic acid 2-(3,5-dimethyl-benzylamide) 5-hydroxyamide]
30 nM | CC(C)CCCC(C)NC(=O)c1ccc(C(=O)NO)s1 (centres unmarked) [Example 15, No. 81, thiophene-2,5-dicarboxylic acid 2-[(1,5-dimethyl-hexyl)-amide] 5-hydroxyamide]
50 nM | O=C(NO)c1ccc(C(=O)NCc2cc(C(F)(F)F)cc(C(F)(F)F)c2)s1 [Example 15, No. 93, Thiophene-2,5-dicarboxylic acid 2-(3,5-bis-trifluoromethyl-benzylamide) 5-hydroxyamide]
70 nM | O=C(NO)c1ccc(C(=O)NCc2cccc(Br)c2)s1 [Example 15, No. 94, Thiophene-2,5-dicarboxylic acid 2-(3-bromo-benzylamide) 5-hydroxyamide]
40 nM | O=C(NO)c1ccc(C(=O)NCCOc2ccccc2)s1 [Example 15, No. 104, Thiophene-2,5-dicarboxylic acid 2-hydroxyamide 5-[(2-phenoxy-ethyl)-amide]]
20 nM | CC(CCc1ccccc1)NC(=O)c1ccc(C(=O)NO)s1 (centres unmarked) [Example 15, No. 128, Thiophene-2,5-dicarboxylic acid 2-hydroxyamide 5-[(1-methyl-3-phenyl-propyl)-amide]]

Reference: US6784173B2, “Aromatic dicarboxylic acid derivatives” (Hoffmann-La Roche Inc., priority 2001, dated 2004)
